Experimental data as given in patent US20250032476A1, “ALPHA-2A ADRENERGIC RECEPTOR MODULATORS AND USES THEREOF” (The Regents of the University of California, priority 2021, published 2025).
Where “and” joins values, the source holds several entries; their conditions need not be identical. Identical values can stand only once. Entries after “also recorded” stand apart in the source; their conditions may differ. Counter-ions that a name gives are not always drawn. Like-named read-outs stand apart in the source and are kept apart here.

Assays:
[1] = tested on: SNI mice; assay: Spared-nerve injury (SNI) model of neuropathic pain, von Frey mechanical thresholds; type: in vivo; conditions: for Effect of atipamezole on the agonist's effect in SNI mice: atipamezole 2 mg/kg, 15 minutes prior
Procedure: Spared-nerve injury (SNI) model of neuropathic pain. Under isoflurane anesthesia, two of the three branches of the sciatic nerve were ligated and transected distally, leaving the sural nerve intact. Behavior was tested 7 to 14 days after injury and in situ hybridization was performed one week post-injury.

[2] = tested on: CFA mice; assay: Complete Freund's Adjuvant (CFA) inflammatory pain model, Hargreaves test; conditions: mouse, in vivo
Procedure: The CFA model of chronic inflammation was induced as described previously (96). Briefly, CFA (Sigma) was diluted 1:1 with saline and vortexed for 30 minutes. When fully suspended, we injected 20 μL of CFA into one hindpaw. Heat thresholds were measured before the injection (baseline) and 3 days after using the Hargreaves test.
The CFA model of chronic inflammation was induced as described previously (100). Briefly, CFA (Sigma) was diluted 1:1 with saline and vortexed for 30 minutes. When fully suspended, we injected 20 μL of CFA into one hindpaw. Heat thresholds were measured before the injection (baseline) and 3 days after using the Hargreaves test.

[3] = target: T1, ALPHA-2A ADRENERGIC RECEPTOR (Homo sapiens (Human), UniProt P08913); assay: Gi recruitment (G protein); type: cell-based; conditions: Gi recruitment
[4] = target: T2, human α2AAR (Homo sapiens (Human), UniProt P08913); assay: Gαi G protein activation, BRET biosensor assay in HEK293T cells; conditions: for Emax: HEK-293T
[5] = Pharmacokinetics in mice (plasma, brain, CSF); type: in vivo
Procedure: Pharmacokinetics. Pharmacokinetic experiments were performed by Bienta (Enamine Biology Services) in accordance with Enamine pharmacokinetic study protocols and Institutional Animal Care and Use Guidelines (protocol number 1-2/2020). […] In each compound study, nine time points (5, 15, 30, 60, 120, 240, 360, 480 and 1440 min) were collected, each of the time point treatment group included 3 animals. There was also a control group of one animal. In the ‘9087, ‘7075, ‘4622 studies, male C57BL/6N mice were used, for PS75 CD-1 mice, and for ‘2998 male Balb/cAnN mice. For all compound studies the animals were randomly assigned to the treatment groups before the pharmacokinetic study; all animals were fasted for 4 h before dosing. For injections, ‘9087 was dissolved in Captisol—water (40%:60%, w/v), ‘4622 was dissolved in a 20% Kolliphor HS—physiological saline solution, and ‘7075, PS75, and ‘2998 were dissolved in a 20% 2-HPBCD—aqueous solution. The batches of working formulations were prepared 10 minutes prior to the in vivo study.
(§1) Mice were injected i.p. with 2,2,2-tribromoethanol at 150 mg/kg prior to drawing CSF and blood. CSF was collected under a stereomicroscope from cisterna magna using 1 mL syringes. Blood collection was performed from the orbital sinus in microtainers containing K3EDTA. Animals were sacrificed by cervical dislocation after the blood samples collection. Blood samples were centrifuged 10 min at 3000 rpm. Brain samples (right lobe) were weighed and transferred into 1.5 ml tubes. All samples were immediately processed, flash-frozen and stored at −70° C. until subsequent analysis.
Plasma samples (40 μL) were mixed with 200 μL of internal standard (IS) solution. After mixing by pipetting and centrifuging for 4 min at 6000 rpm, 4 μL of each supernatant was injected into the LC-MS/MS system. Solutions of internal standards were used to quantify compounds in the plasma samples. […] After this, the samples were centrifuged for 4 min at 14,000 rpm, and supernatant was injected into LC-MS/MS system. CSF samples (2 μL) were mixed with 40 μL of an internal stock solution. After mixing by pipetting and centrifuging for 4 min at 6,000 rpm, 5 μL of each supernatant was injected into LC-MS/MS system.
(§2) Analyses of plasma, brain and CSF samples were conducted at Enamine/Bienta. The concentrations of compounds in plasma and brain samples were determined using high performance liquid chromatography/tandem mass spectrometry (HPLC-MS/MS). Data acquisition and system control was performed using Analyst 1.5.2 software (AB Sciex, Canada). […] Pharmacokinetic data analysis was performed using noncompartmental, bolus injection or extravascular input analysis models in WinNonlin 5.2 (PharSight).
as §1, with “mL” for “ml”
as §2
Additional pharmacokinetic experiments were performed by Sai Life Sciences (Hyderabad, India) in accordance with the Sai Study Protocol SAIDMPK/PK-22-04-0340. […] Testing was done in C57BL/6 mice.

[6] = target: T2, human α2AAR; assay: Radioligand competition binding to human α2AAR (HEK293T membranes, [3H]RX82,1002); conditions: for Ki: human α2AAR
[7] = target: T2, human α2AAR; assay: β-arrestin-2 recruitment, BRET biosensor assay in HEK293T cells
Procedure: Bioluminescense resonance energy transfer. G protein mediated activation of human α2AAR and D2long was monitored with Gαi1-RLucII (71, 72) together with Gβ1 and Gγ1-GFP10. Arrestin recruitment was performed by enhanced bystander BRET using CAAX-rGFP and β-arrestin-2-RLucII as biosensors (all biosensors are provided from M. Bouvier, Université de Montréal, Canada) (71, 73) in the presence of GRK2 as described (66, 74). In brief, HEK293T cells were transfected with a total amount of 3.3 μg DNA per 10^6 cells using linear polyethyleneimine (PEI, Polysciences, 3:1 PEI:DNA ratio) and transferred into 96-well half-area plates (Greiner, Frickenhausen, Germany) at a density of 10,000 cells per well and incubated for 48 hrs. Medium was exchanged with PBS (Hank's balanced salt solution) and cells were stimulated with ligands at 37° C. for 10 min for Gαi stimulation or arrestin recruitment, respectively.

[8] = target: T1, ALPHA-2A ADRENERGIC RECEPTOR; assay: Arrestin recruitment; type: cell-based; conditions: Tables 7-9
[9] = tested on: imidazoline-2 receptor (I2R); assay: I2R binding (Eurofins Cerep); conditions: tested at 500 nM
[10] = analgesia in vivo; conditions: result in words, Table 6
[11] = Metabolic stability in male rat liver microsomes; type: in vitro ADME; conditions: 1 hour
Procedure: Metabolic stability studies. Metabolic stability of the test compounds was assessed using male pooled rat liver microsomes (Sprague Dawley, Sigma Aldrich) as previously described (93, 94). The reactions were carried out in 2 mL polyethylene tubes on a rotator carousel (Stuart™ SB3) in an incubator at 37° C. […] Transformation reactions were initiated by the addition of 50 μL of cofactor solution (NADPH, Carl Roth, final concentration 1 mM). […] Precipitated protein was removed by centrifugation (1 min, 16,000 rcf) and the supernatants were analysed by HPLC/MS on a Thermo Scientific Dionex Ultimate 3000 HPLC system equipped with a Zorbax Eclipse XDB-C8 column (4.6×150 mm, 5 μm), a DAD detector (210 nm, 230 nm, 254 nm, 310 nm), and a BRUKER amaZon SL mass spectrometer with ESI source. The following binary eluent system (methanol in water+0.1% (v/v) formic acid) was employed: 10% for 1 min, 10% to 100% in 20 min, 100% for 5 min, 100% to 10% in 2 min, 10% for 2 min, flow 0.4 mL/min. […] Control experiments were conducted in the absence of cofactor solution to determine non-specific binding to matrix. The integral (AUC) of the extracted ion chromatograms (EIC) was used to analyze the concentration of the remaining substrates. […]

[12] = tested on: naïve mice; assay: Mechanical thresholds (von Frey) in naïve (uninjured) mice; conditions: mouse, in vivo
[13] = tested on: mice; assay: Rotarod motor test (motor impairment and sedation); type: in vivo
[14] = target: T2, human α2AAR; assay: α2AAR internalization assay with rGFP-CAAX and rGFP-FYVE biosensors; type: cell-based; conditions: α2AAR-RlucII/rGFP-CAAX biosensor
Procedure: Human α2AAR internalization was evaluated by measuring the disappearance of hα2AAR-RlucII from the plasma membrane labeled with rGFP-CAAX and its relocalization in endosome labeled with rGFP-FYVE (39).
For concentration-response curves, BRET signal was measured after 30 min incubation. Plates were read on a Spark microplate reader (Tecan; Mannedorf, Switzerland) using the BRET2 manufacturer settings.

[15] = tested on: mice; assay: Tail flick (50° C.) acute thermal pain assay; type: in vivo
[16] = target: human α2BAR (Homo sapiens (Human), UniProt P18089); assay: Radioligand competition binding to human α2BAR; conditions: saturation binding
[17] = target: murine α2AAR (Mus musculus (Mouse), UniProt Q01338); assay: Radioligand competition binding to murine α2AAR; conditions: saturation binding
[18] = target: α2CAR (Homo sapiens (Human), UniProt P18825); assay: Radioligand binding to α2C adrenergic receptor; conditions: saturation binding
[19] = target: α2AAR-Y431^7.43A/F (Homo sapiens, UniProt P08913, Y431A); assay: Gi activation (BRET) at α2AAR Y431^7.43 mutants; type: cell-based
Procedure: Investigating the sensitivity of selected ligands to the receptor mutants α2AAR-D128^3.32A, α2AAR-D128^3.32T, α2AAR-D128^3.32L, α2AAR-S215^5.42A, α2AAR-Y409^6.55A, α2AAR-Y409^6.55T, α2AAR-Y409^6.55F, α2AAR-F427^7.39F, α2AAR-Y431^7.43A, and α2AAR-Y431^7.43F was determined by monitored G protein stimulation as described above transfecting the appropriate receptor together with Gαi1-RLucII and Gβ1/Gγ1-GFP10. […] Three to ten experiments were done in duplicate.
The sensitivity of selected ligands to the receptor mutants α2AAR-D128^3.32A, α2AAR-D128^3.32T, α2AAR-D128^3.32L, α2AAR-S215^5.42A, α2AAR-Y409^6.55A, α2AAR-Y409^6.55T, α2AAR-Y409^6.55F, α2AAR-F427^7.39F, α2AAR-Y431^7.43A, and α2AAR-Y431^7.43F was monitored by G protein activation as described above transfecting the appropriate receptor together with Gαi1-RLucII and Gβ1/Gγ2-GFP10. […] Similarly, the effect of the α2AAR-D128^3.32A, α2AAR-S215^5.42A, α2AAR-Y409^6.55A, α2AAR-Y409^6.55F, α2AAR-F427^7.39F, α2AAR-Y431^7.43A, and α2AAR-Y431^7.43F mutations on arrestin recruitment was evaluated as described above transfecting the appropriate receptor together with CAAX-rGFP, GRK2 and β-arrestin-2-RLucII. Data was analyzed as ligand induced changes in BRET compared to vehicle (deltaBRET). Three to seven experiments were done in duplicate.

[20] = Body weight measurement over 48 hours; type: in vivo, mice; conditions: ‘9087 5, 10 or 20 mg/kg; dexmedetomidine 30 μg/kg
[21] = tested on: mice; assay: Constipation assay (fecal pellets over 6 hours); conditions: i.p.; morphine 10 mg/kg, dexmedetomidine 30 μg/kg, ‘9087 5 mg/kg; versus vehicle
[22] = Gαi EC50, BRET biosensor, HEK293T, human α2AAR
[23] = mouse, brain, ip, I.P. 10 mg/kg, read-out: T ½ Brain (converted)
[24] = mouse, plasma, ip, I.P. 10 mg/kg
[25] = mouse, plasma, ip, I.P. 10 mg/kg, read-out: T ½ Plasma (converted)
[26] = mean ± s.e.m., read-out: Ki for α2AAR
[27] = C57BL/6N ('9087), C57BL/6 (PS75), mouse, plasma, iv, I.V. 10 mg/kg
[28] = C57BL/6N ('9087), C57BL/6 (PS75), mouse, plasma, po, P.O. 30 mg/kg

T1 sequence (P08913 whole entry): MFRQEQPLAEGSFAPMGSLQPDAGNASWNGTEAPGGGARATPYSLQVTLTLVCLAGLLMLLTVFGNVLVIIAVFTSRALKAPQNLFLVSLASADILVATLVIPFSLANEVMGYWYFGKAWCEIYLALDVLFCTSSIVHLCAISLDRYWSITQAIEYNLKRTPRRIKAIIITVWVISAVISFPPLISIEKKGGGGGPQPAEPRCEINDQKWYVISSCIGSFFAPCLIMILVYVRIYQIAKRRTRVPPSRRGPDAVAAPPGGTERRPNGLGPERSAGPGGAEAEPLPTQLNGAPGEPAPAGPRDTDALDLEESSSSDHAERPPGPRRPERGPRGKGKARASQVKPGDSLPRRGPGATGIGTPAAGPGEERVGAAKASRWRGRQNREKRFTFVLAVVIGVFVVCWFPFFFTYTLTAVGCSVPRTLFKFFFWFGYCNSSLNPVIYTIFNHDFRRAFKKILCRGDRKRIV
T2 sequence (P08913 whole entry): as above
human α2BAR, sequence (P18089 whole entry): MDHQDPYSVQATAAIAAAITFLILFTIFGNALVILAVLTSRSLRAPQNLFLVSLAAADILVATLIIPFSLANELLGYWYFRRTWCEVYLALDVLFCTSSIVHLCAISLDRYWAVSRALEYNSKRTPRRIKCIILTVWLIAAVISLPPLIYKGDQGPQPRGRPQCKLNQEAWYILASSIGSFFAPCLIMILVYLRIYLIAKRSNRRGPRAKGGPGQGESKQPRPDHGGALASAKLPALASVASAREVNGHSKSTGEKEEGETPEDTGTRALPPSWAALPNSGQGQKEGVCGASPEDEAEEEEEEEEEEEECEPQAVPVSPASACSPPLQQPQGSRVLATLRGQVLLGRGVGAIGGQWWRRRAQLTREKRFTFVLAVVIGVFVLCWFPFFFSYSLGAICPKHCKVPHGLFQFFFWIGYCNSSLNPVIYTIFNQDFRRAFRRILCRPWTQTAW
α2CAR, sequence (P18825 whole entry): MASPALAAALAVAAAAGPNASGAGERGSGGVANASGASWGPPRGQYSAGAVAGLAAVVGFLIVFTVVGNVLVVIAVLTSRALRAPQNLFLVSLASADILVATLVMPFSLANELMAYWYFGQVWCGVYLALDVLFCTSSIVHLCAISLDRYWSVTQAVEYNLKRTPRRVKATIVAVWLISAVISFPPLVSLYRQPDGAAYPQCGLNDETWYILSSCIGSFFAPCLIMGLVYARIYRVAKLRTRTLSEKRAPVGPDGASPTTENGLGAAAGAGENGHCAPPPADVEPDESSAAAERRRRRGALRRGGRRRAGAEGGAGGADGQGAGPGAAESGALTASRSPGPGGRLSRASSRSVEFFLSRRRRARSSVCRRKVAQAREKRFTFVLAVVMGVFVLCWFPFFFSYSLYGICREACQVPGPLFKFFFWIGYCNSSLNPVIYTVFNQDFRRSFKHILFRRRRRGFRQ
murine α2AAR, sequence (Q01338 whole entry): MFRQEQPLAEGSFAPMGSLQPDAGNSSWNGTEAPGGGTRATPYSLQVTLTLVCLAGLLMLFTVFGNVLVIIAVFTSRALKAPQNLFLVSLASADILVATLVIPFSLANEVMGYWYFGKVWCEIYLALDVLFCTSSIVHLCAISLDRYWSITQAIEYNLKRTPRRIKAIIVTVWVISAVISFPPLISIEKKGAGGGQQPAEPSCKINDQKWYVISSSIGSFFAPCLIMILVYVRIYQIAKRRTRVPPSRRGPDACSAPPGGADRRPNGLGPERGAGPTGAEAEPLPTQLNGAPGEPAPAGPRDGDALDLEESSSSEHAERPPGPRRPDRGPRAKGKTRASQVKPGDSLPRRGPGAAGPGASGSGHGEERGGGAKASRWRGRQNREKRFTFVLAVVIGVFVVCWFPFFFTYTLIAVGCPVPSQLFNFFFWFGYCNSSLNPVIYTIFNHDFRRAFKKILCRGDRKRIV

Cc1cc2[nH]ncc2cc1-c1ccc(N)nc1 [Compound 2998, 5-(6-Methyl-1H-indazol-5-yl)pyridin-2-amine]
Effect of atipamezole on the agonist's effect in SNI mice [1]: not significant reversal; also recorded: partially reversed | Mechanical thresholds / anti-allodynic effect in SNI mice ([1]; systemic injection): exhibited anti-allodynic effects | Thermal latencies / anti-hyperalgesic effect in CFA model [2]: did not | EC50 ([3]; Tables 7-9, read-out: G protein EC50): 89 nM | Emax ([3]; Tables 7-9, read-out: G protein Emax (%)): 60% | EC50 [4, 22]: 73 ± 14 nM | Emax ([4]; read-out: Gαi Emax): 61 ± 3% | AUC Brain ([5]; I.P. 10 mg/kg): 51700 ng·min/mL | Cmax Brain ([5]; I.P. 10 mg/kg): 742 ng/mL | half-life [5, 23]: 0.46 h | AUC [5, 24]: 3070 ng·h/mL | Cmax [5, 24]: 2710 ng/mL | half-life [5, 25]: 0.4 h | Ki [6, 26]: 180 ± 34 nM | EC50 [7]: 98 ± 32 nM | Emax ([7]; HEK-293T, read-out: β-arrestin-2 Emax): 8 ± 3% | Emax [8]: < 10% | I2R binding, single point radioligand experiment [9]: no binding was seen

Clc1ccc2cccc(Nc3ccncc3)c2c1 [PS75, N-(7-Chloronaphthalen-1-yl)pyridin-4-amine x TFA]
Effect of atipamezole on the agonist's effect in SNI mice ([1]; TFA): not significant reversal; also recorded: partially reversed | Mechanical thresholds / anti-allodynic effect in SNI mice ([1]; systemic injection): exhibited anti-allodynic effects | Reversal of mechanical hypersensitivity in SNI mice ([1]; systemic injection): completely reversed the mechanical hypersensitivity | analgesic in vivo [10]: analgesic in vivo | Metabolic stability, compound remaining [11]: remain largely unmodified after 1 hour | Mechanical thresholds of naïve (uninjured) mice [12]: did increase the mechanical thresholds | Performance in rotarod test ([13]; doses up to 20 mg/kg): did not have an effect | functional classification (agonist / weak agonist) ([3]; Table 6, result in words): agonist | EC50 ([3]; Table 6, read-out: EC50): 4.8 nM | Emax ([3]; Table 6, read-out: Emax (%)): 79% | EC50 ([4]; Gi EC50 ± SE, BRET biosensor, human α2AAR (Table 3)): 4.8 nM | EC50 [4, 22]: 4.8 nM | Emax ([4]; read-out: Gi Emax ± SEM): 82% | Emax ([4]; read-out: Gαi Emax): 82% | Fold increased Gi potency compared to ‘9087 ([4]; TFA): 13 fold and 11 fold | AUC [5, 27]: 3460 ng·h/mL | Cmax [5, 27]: 2590 ng/mL | half-life ([5]; C57BL/6N ('9087), C57BL/6 (PS75), mouse, plasma, iv, I.V. 10 mg/kg, read-out: T ½ Plasma (converted)): 1.64 h | bioavailability ([5]; C57BL/6N ('9087), C57BL/6 (PS75), mouse, plasma, oral, from I.V. 10 mg/kg and P.O. 30 mg/kg dosing): 102% | AUC [5, 28]: 10600 ng·h/mL | Cmax [5, 28]: 2390 ng/mL | half-life ([5]; C57BL/6N ('9087), C57BL/6 (PS75), mouse, plasma, po, P.O. 30 mg/kg, read-out: T ½ Plasma (converted)): 3.17 h | half-life ([5]; C57BL/6N ('9087, '7075, '4622), CD-1 (PS75), mouse, CSF, ip, I.P. 10 mg/kg, read-out: T ½ CSF (converted)): 2.55 h | AUC Brain ([5]; I.P. 10 mg/kg): 888000 ng·min/mL | AUC CSF ([5]; I.P. 10 mg/kg): 7790 ng·min/mL | Cmax Brain ([5]; I.P. 10 mg/kg): 9200 ng/mL | Cmax CSF ([5]; I.P. 10 mg/kg): 99.3 ng/mL | half-life [5, 23]: 1.07 h | AUC [5, 24]: 927 ng·h/mL | Cmax [5, 24]: 679 ng/mL | half-life [5, 25]: 0.73 h | Disappearance of α2AAR from the plasma membrane (internalization) [14]: no effect | Withdrawal latencies, tail flick [15]: increased withdrawal latencies | Ki ([6]; mean ± SEM (Table 3), read-out: Ki): 8.2 ± 0.48 nM | Ki [6, 26]: 8.2 ± 0.48 nM | Emax ([7]; HEK-293T, read-out: β-Arr-2 Emax @ 0.1 mM): 15% | Emax at 100 µM ([7]; HEK-293T, read-out: β-arrestin-2 Emax @ 0.1 mM): 15 ± 3%

COC1(C2=NCCN2)COc2ccccc2O1 (centres unmarked) [[^3H]RX82,1002]
Kd [16]: 2.3 ± 0.52 nM | Kd [17]: 1.8 ± 0.61 nM | Kd [18]: 0.58 ± 0.11 nM | Kd ([6]; saturation binding): 0.54 ± 0.024 nM

Cc1cccc([C@H](C)c2cnc[nH]2)c1C [dexmedetomidine]
Gi signaling at Y431^7.43A [19]: essentially eliminated | Effect on body weight over 48 hours [20]: no effect on body weight | Sedation in rotarod test ([13]; 60 μg/kg): completely sedating; also recorded: complete sedation | AUC Brain ([5]; I.P. 30 μg/kg): 285 ng·min/mL | Cmax Brain ([5]; I.P. 30 μg/kg): 8 ng/mL

CN1CC[C@]23c4c5ccc(O)c4O[C@H]2[C@@H](O)C=C[C@H]3[C@H]1C5 [morphine]
Constipation [21]: induced constipation
